# Results published in patent publication US8969325B2, “TRPV1 antagonists” (AbbVie Inc., priority 2011, dated 2015).
# Assays:
# human TRPV1 [1] = target: T1, human TRPV1 (Homo sapiens (Human), UniProt Q8NER1); assay: Acid Activation Assay (pH 5.0, intracellular Ca2+, FLIPR); format: cell-based; settings: percentage of the maximal pH 5.0-induced response remaining; recombinant HEK293 hTRPV1 cells; maximum concentration tested 37.5 μM
# Procedure, shortened: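 Readout: peak [Ca2+]i fluorescence over baseline on FLIPR, expressed as percentage remaining of the maximal pH 5.0-evoked signal. Stable hTRPV1-HEK293 cells with Calcium-4 dye received compound (12 half-log concentrations, maximum 37.5 μM) 3 min before acidic pH 5.0 buffer.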
# human TRPV1 [2] = target: T1, human TRPV1; assay: Capsaicin Activation Assay (intracellular Ca2+, FLIPR); format: cell-based; settings: recombinant HEK293 cells expressing hTRPV1, 50 nM capsaicin
# Procedure, shortened: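 Ca2+ fluorescence was recorded by FLIPR every 1 to 5 seconds in HEK293 cells, clonally selected for stable human TRPV1 expression and plated one day ahead. Test compounds came as serial dilutions of 10 mM DMSO stocks.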
# T1 sequence (Q8NER1 whole entry): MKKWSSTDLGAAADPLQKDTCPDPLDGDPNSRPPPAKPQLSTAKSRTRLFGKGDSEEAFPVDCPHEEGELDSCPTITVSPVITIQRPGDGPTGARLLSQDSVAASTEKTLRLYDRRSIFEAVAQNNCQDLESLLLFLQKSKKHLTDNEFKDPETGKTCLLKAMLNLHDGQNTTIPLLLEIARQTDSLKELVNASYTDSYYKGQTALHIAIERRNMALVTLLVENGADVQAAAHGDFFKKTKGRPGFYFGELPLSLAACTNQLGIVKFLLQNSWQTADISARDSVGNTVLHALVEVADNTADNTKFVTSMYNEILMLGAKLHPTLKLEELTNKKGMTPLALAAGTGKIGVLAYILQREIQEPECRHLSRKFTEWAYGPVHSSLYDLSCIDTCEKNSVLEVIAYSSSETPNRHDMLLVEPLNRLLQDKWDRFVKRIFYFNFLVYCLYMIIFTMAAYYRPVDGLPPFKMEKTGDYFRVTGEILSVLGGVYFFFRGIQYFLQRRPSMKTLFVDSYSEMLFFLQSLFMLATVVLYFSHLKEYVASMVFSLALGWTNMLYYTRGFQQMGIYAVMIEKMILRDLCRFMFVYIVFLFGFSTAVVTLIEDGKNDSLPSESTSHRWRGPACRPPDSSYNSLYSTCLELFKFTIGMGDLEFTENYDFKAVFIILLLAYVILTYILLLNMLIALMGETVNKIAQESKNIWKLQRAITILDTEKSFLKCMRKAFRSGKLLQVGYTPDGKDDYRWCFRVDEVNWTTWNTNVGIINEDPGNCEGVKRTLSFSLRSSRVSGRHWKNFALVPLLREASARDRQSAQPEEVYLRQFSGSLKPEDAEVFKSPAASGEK
Compound,human TRPV1 H^+ (max % remain) (human TRPV1 [1]),IC50 (human TRPV1 [2])
"CN1C(=O)NCc2c(NC(=O)N[C@@H]3C[C@@](C)(C(F)F)Oc4cc(Cl)ccc43)cccc21 [Example 11, 1-[(2S,4R)-7-chloro-2-(difluoromethyl)-2-methyl-3,4-dihydro-2H-chromen-4-yl]-3-(1-methyl-2-oxo-1,2,3,4-tetrahydroquinazolin-5-yl)urea]",32%,21 nM
"CC1(C)C[C@@H](NC(=O)Nc2ccc3c(c2)NC(=O)N(CCO)C3)c2cccc(F)c2O1 [Example 42, 1-[(4R)-8-fluoro-2,2-dimethyl-3,4-dihydro-2H-chromen-4-yl]-3-[3-(2-hydroxyethyl)-2-oxo-1,2,3,4-tetrahydroquinazolin-7-yl]urea]",8%,510 nM
"O=C(Nc1ccc2c(c1)NC(=O)N(CCO)C2)N[C@@H]1CCOc2cc(C(F)(F)F)ccc21 [Example 54, 1-[3-(2-hydroxyethyl)-2-oxo-1,2,3,4-tetrahydroquinazolin-7-yl]-3-[(4R)-7-(trifluoromethyl)-3,4-dihydro-2H-chromen-4-yl]urea]",1%,260 nM
"Cn1c(=O)ccc2c(NC(=O)N[C@@H]3CC(CF)(CF)Oc4cc(C(F)(F)F)ccc43)cccc21 [Example 92, 1-[(4R)-2,2-bis(fluoromethyl)-7-(trifluoromethyl)-3,4-dihydro-2H-chromen-4-yl]-3-(1-methyl-2-oxo-1,2-dihydroquinolin-5-yl)urea]",43%,19 nM
"O=C1COc2ccc(NC(=O)N[C@@H]3CCOc4c3cccc4C(F)(F)F)cc2N1 [Example 120, 1-(3-oxo-3,4-dihydro-2H-1,4-benzoxazin-6-yl)-3-[(4R)-8-(trifluoromethyl)-3,4-dihydro-2H-chromen-4-yl]urea]",103%,200 nM
"1-[(4R)-7-chloro-2,2-diethyl-3,4-dihydro-2H-chromen-4-yl]-3-(1-methyl-2-oxo-1,2,3,4-tetrahydroquinazolin-5-yl)urea [Example 145]",7%,160 nM
"Cn1c(=O)ccc2c(NC(=O)N[C@@H]3CCc4cc(C(C)(C)C)ccc43)cccc21 [Example 68, 1-[(1R)-5-tert-butyl-2,3-dihydro-1H-inden-1-yl]-3-(1-methyl-2-oxo-1,2-dihydroquinolin-5-yl)urea]",34%,20 nM
"O=C1COc2ccc(NC(=O)N[C@@H]3CC(CF)(CF)Oc4c(F)cccc43)cc2N1 [Example 116, 1-[(4R)-8-fluoro-2,2-bis(fluoromethyl)-3,4-dihydro-2H-chromen-4-yl]-3-(3-oxo-3,4-dihydro-2H-1,4-benzoxazin-6-yl)urea]",99%,2000 nM
"O=C1COc2ccc(NC(=O)N[C@H]3CC4(CCC4)Oc4ccc(F)cc43)cc2N1 [Example 122, 1-[(4S)-6-fluoro-3,4-dihydrospiro[chromene-2,1′-cyclobutan]-4-yl]-3-(3-oxo-3,4-dihydro-2H-1,4-benzoxazin-6-yl)urea]",104%,> 38000 nM
"Cn1c(=O)ccc2c(NC(=O)N[C@H]3CC(C)(C)Oc4ccc(F)cc43)cccc21 [Example 98, 1-[(4S)-6-fluoro-2,2-dimethyl-3,4-dihydro-2H-chromen-4-yl]-3-(1-methyl-2-oxo-1,2-dihydroquinolin-5-yl)urea]",58%,3700 nM
"1-(1-methyl-2-oxo-1,2,3,4-tetrahydroquinazolin-5-yl)-3-[(4R)-8-(trifluoromethoxy)-3,4-dihydro-2H-chromen-4-yl]urea [Example 138]",19%,38 nM
"CCC1(CC)C[C@@H](NC(=O)Nc2cccc3c2CNC(=O)N3C)c2ccc(C(F)(F)F)cc2O1 [Example 144, 1-[(4R)-2,2-diethyl-7-(trifluoromethyl)-3,4-dihydro-2H-chromen-4-yl]-3-(1-methyl-2-oxo-1,2,3,4-tetrahydroquinazolin-5-yl)urea]",5%,130 nM

# The remaining lines, values ahead:
human TRPV1 H^+ (max % remain) (human TRPV1 [1]),IC50 (human TRPV1 [2]),Compound
72%,21 nM,"CN1C(=O)CCc2ccc(NC(=O)N[C@@H]3CC(C)(C)Oc4c(F)cccc43)cc21 [Example 257, 1-[(4R)-8-fluoro-2,2-dimethyl-3,4-dihydro-2H-chromen-4-yl]-3-(1-methyl-2-oxo-1,2,3,4-tetrahydroquinolin-7-yl)urea]"
68%,15 nM,"CN1C(=O)CCc2ccc(NC(=O)N[C@@H]3C[C@](C)(CF)Oc4cc(C(F)(F)F)ccc43)cc21 [Example 290, 1-[(2R,4R)-2-(fluoromethyl)-2-methyl-7-(trifluoromethyl)-3,4-dihydro-2H-chromen-4-yl]-3-(1-methyl-2-oxo-1,2,3,4-tetrahydroquinolin-7-yl)urea]"
30%,86 nM,"O=C1CCc2ccc(NC(=O)N[C@H]3CC4(CCC4)Oc4ccc(F)cc43)cc2N1 [Example 242, 1-[(4S)-6-fluoro-3,4-dihydrospiro[chromene-2,1′-cyclobutan]-4-yl]-3-(2-oxo-1,2,3,4-tetrahydroquinolin-7-yl)urea]"
22%,470 nM,"CN1C(=O)NCc2c(NC(=O)N[C@@H]3CC(CF)(CF)Oc4ccc(F)cc43)cccc21 [Example 152, 1-[(4R)-6-fluoro-2,2-bis(fluoromethyl)-3,4-dihydro-2H-chromen-4-yl]-3-(1-methyl-2-oxo-1,2,3,4-tetrahydroquinazolin-5-yl)urea]"
68%,26 nM,"CN1C(=O)CCc2ccc(NC(=O)N[C@@H]3C[C@@](C)(C(F)F)Oc4ccccc43)cc21 [Example 292, 1-[(2S,4R)-2-(difluoromethyl)-2-methyl-3,4-dihydro-2H-chromen-4-yl]-3-(1-methyl-2-oxo-1,2,3,4-tetrahydroquinolin-7-yl)urea]"
101%,3600 nM,"CC1(C)C[C@@H](NC(=O)Nc2ccc3c(c2)NC(=O)CC3)c2cccc(C(F)(F)F)c2O1 [Example 218, 1-[(4R)-2,2-dimethyl-8-(trifluoromethyl)-3,4-dihydro-2H-chromen-4-yl]-3-(2-oxo-1,2,3,4-tetrahydroquinolin-7-yl)urea]"
59%,91 nM,"CCC1(CC)C[C@@H](NC(=O)Nc2ccc3c(c2)NC(=O)N(C)C3)c2cccc(F)c2O1 [Example 177, 1-[(4R)-2,2-diethyl-8-fluoro-3,4-dihydro-2H-chromen-4-yl]-3-(3-methyl-2-oxo-1,2,3,4-tetrahydroquinazolin-7-yl)urea]"
3%,68 nM,"O=C(Nc1ccc2c(c1)NC(=O)N(CCO)C2)N[C@@H]1CCOc2ccccc21 [Example 308, 1-[(4R)-3,4-dihydro-2H-chromen-4-yl]-3-[3-(2-hydroxyethyl)-2-oxo-1,2,3,4-tetrahydroquinazolin-7-yl]urea]"
60%,1300 nM,"CC1(C)C[C@@H](NC(=O)Nc2ccc3c(c2)NC(=O)C(N2CCOCC2)C3)c2ccc(F)cc2O1 (stereo partly drawn) [Example 301, 1-[(4R)-7-fluoro-2,2-dimethyl-3,4-dihydro-2H-chromen-4-yl]-3-[3-(morpholin-4-yl)-2-oxo-1,2,3,4-tetrahydroquinolin-7-yl]urea]"
50%,510 nM,"COCC1(COC)C[C@@H](NC(=O)Nc2ccc3c(c2)N(C)C(=O)CC3)c2cc(F)ccc2O1 [Example 279, 1-[(4R)-6-fluoro-2,2-bis(methoxymethyl)-3,4-dihydro-2H-chromen-4-yl]-3-(1-methyl-2-oxo-1,2,3,4-tetrahydroquinolin-7-yl)urea]"
61%,130 nM,"CCC1(CC)C[C@@H](NC(=O)Nc2ccc3c(c2)N(C)C(=O)CC3)c2ccccc2O1 [Example 260, 1-[(4R)-2,2-diethyl-3,4-dihydro-2H-chromen-4-yl]-3-(1-methyl-2-oxo-1,2,3,4-tetrahydroquinolin-7-yl)urea]"
21%,90 nM,"CN1Cc2ccc(NC(=O)N[C@@H]3CCOc4c3cccc4C(F)(F)F)cc2NC1=O [Example 200, 1-(3-methyl-2-oxo-1,2,3,4-tetrahydroquinazolin-7-yl)-3-[(4R)-8-(trifluoromethyl)-3,4-dihydro-2H-chromen-4-yl]urea]"
33%,220 nM,"CN1C(=O)NCc2c(NC(=O)N[C@@H]3C[C@](C)(CF)Oc4ccccc43)cccc21 [Example 163, 1-[(2R,4R)-2-(fluoromethyl)-2-methyl-3,4-dihydro-2H-chromen-4-yl]-3-(1-methyl-2-oxo-1,2,3,4-tetrahydroquinazolin-5-yl)urea]"
51%,500 nM,"CN1C(=O)CCc2ccc(NC(=O)N[C@@H]3CC(CF)(CF)Oc4cc(C(F)(F)F)ccc43)cc21 [Example 263, 1-[(4R)-2,2-bis(fluoromethyl)-7-(trifluoromethyl)-3,4-dihydro-2H-chromen-4-yl]-3-(1-methyl-2-oxo-1,2,3,4-tetrahydroquinolin-7-yl)urea]"
84%,54 nM,"CN1C(=O)CCc2ccc(NC(=O)N[C@@H]3CC(C)(C)Oc4c3ccc(F)c4F)cc21 [Example 299, 1-[(4R)-7,8-difluoro-2,2-dimethyl-3,4-dihydro-2H-chromen-4-yl]-3-(1-methyl-2-oxo-1,2,3,4-tetrahydroquinolin-7-yl)urea]"
58%,6700 nM,"CN1Cc2ccc(NC(=O)N[C@@H]3CCOc4ccc(F)cc43)cc2NC1=O [Example 199, 1-[(4R)-6-fluoro-3,4-dihydro-2H-chromen-4-yl]-3-(3-methyl-2-oxo-1,2,3,4-tetrahydroquinazolin-7-yl)urea]"
